Source: publication PMC4076215, “Nickel(II) Complex of Polyhydroxybenzaldehyde N4-Thiosemicarbazone Exhibits Anti-Inflammatory Activity by Inhibiting NF-κB Transactivation” (PLoS ONE, 2014)

What was measured:
[1] = Liver functional test (serum) after oral dosing; format: in vivo, C57BL/6 mice; settings: after two weeks
Procedure: Liver functional test. C57BL/6 mice at age 8-12 weeks old were administrated orally with control PBS or with various concentrations (125 mg/kg, 250 mg/kg and 500 mg/kg) of complex 5. n= 6 (3 male and 3 female mice)/group. After two weeks, sera were collected from the mice for liver functional test.
Shown were mean ± SD. TBIL: Total Bilirubin, BC: Conjugated
Bilirubin, ALP: Alkaline Phophatase, ALT: Alanine Aminotransferase, AST: Aspartate Transaminase, GGT: G-Glutamyl Transferase.

COX-2 expression = test: TNF-induced COX-2 expression; format: cell-based; settings: Figure S1
Procedure: In addition, we investigated the effect of complex 5 on NF-κB-mediated gene expression in response to TNFα stimulation in human HeLa S3 cells. We treated HeLa S3 cells with complex 5 for 4 h before TNFα treatment for 4 h.
Supplementary file pone.0100933.s001.pdf: Figure S1 Complex 5 inhibits TNF-induced COX2 expression. (PDF) Click here for additional data file.

[2] = Renal functional test (serum) after oral dosing; format: in vivo, C57BL/6 mice; settings: after two weeks
Procedure: Renal functional test. C57BL/6 mice at age 8-12 weeks old were administrated orally with control PBS or
with various concentrations (125 mg/kg, 250 mg/kg and 500 mg/kg) of complex 5. n= 6 (3 male and 3
female mice)/group. After two weeks, sera were collected from the mice for renal functional test.

[3] = tested on: IκBα degradation/phosphorylation and p65 translocation; test: Immunoblot, TNFα-stimulated HeLa S3; format: cell-based, human; settings: HeLa S3, pretreated 4 h, TNFα stimulation
Procedure: Cells were pretreated with or without of complex 5 (25 µg/ml or 50 µg/ml) for 4 h before treatment with LPS (10 ng/ml) or TNFα (10 ng/ml), for the indicated times. The cytoplasmic extracts were prepared by using the hypotonic lysis buffer (10 mM Tris, pH 7.5; 1.5 mM MgCl2; 10 mM KCl; 0.5 mM DTT; 0.5 mM PMSF; 1× Protease Inhibitor, 0.1% NP40) followed by incubation on ice for 20 min and centrifugation at 3k rpm at 4°C for 10 min. The supernatants were collected as cytoplasmic extracts. The nuclear pellets were resuspended in the whole cell lysis buffer (25 mM Tris, pH7.5; 420 mM NaCl; 1.5 mM MgCl2; 0.2 mM EDTA; 25% Glycerol; 0.5 mM DTT; 0.5 mM PMSF; 1× Protease Inhibitor). The nuclear extracts were then collected by centrifugation at 15 krpm at 4°C for 10 min. Immunoblotting was performed using antibodies against PARP (F-2, N-20), HSP90a (C-20), p65 (C-20), IκBα (C-21) and p-IκBα from Santa Cruz Biotech.
To examine whether complex 5 blocks the activation of NF-κB by another agonist, similar experiments were performed on HeLa S3 cells induced with TNFα. Similar to LPS-treated RAW264.7 cells, TNFα-induced translocation of NF-κB p65 in HeLa S3 cells (Figure 5A). […]
Figure 5 Complex 5 blocks TNFα-induced NF-κB nuclear translocation. […] Western blot signal intensities were quantified using ImageJ software. […]

NC1=[S+][Ni-2]2([P+](c3ccccc3)(c3ccccc3)c3ccccc3)[O]c3c(O)cccc3C=[N+]2N1.[Cl-] [complex 5, {2-[(2-Carbamothiolylhydrazin-1-ylidene-[kappa]2N1,S)methyl]-6-hydroxyphenolato-[kappa]O1}(triphenylphosphine-[kappa]P)nickel(II) chloride]
ALP (Alkaline Phophatase) ([1]; 125 mg/kg oral): 192.00 IU/L
ALT (Alanine Aminotransferase) ([1]; 125 mg/kg oral): 69.00 IU/L
AST (Aspartate Transaminase) ([1]; 125 mg/kg oral): 421.00 IU/L
Albumin ([1]; 125 mg/kg oral): 18.00 g/L
BC (Conjugated Bilirubin) ([1]; 125 mg/kg oral): < 1 µmol/L
GGT (G-Glutamyl Transferase) ([1]; 125 mg/kg oral): < 3 IU/L
Globulin ([1]; 125 mg/kg oral): 42.00 g/L
TBIL (Total Bilirubin) ([1]; 125 mg/kg oral): 3.00 µmol/L
Total Protein ([1]; 125 mg/kg oral): 60.00 g/L
ALP (Alkaline Phophatase) ([1]; 250 mg/kg oral): 195.00 IU/L
ALT (Alanine Aminotransferase) ([1]; 250 mg/kg oral): 70.00 IU/L
AST (Aspartate Transaminase) ([1]; 250 mg/kg oral): 414.00 IU/L
Albumin ([1]; 250 mg/kg oral): 17.00 g/L
BC (Conjugated Bilirubin) ([1]; 250 mg/kg oral): < 1 µmol/L
GGT (G-Glutamyl Transferase) ([1]; 250 mg/kg oral): < 3 IU/L
Globulin ([1]; 250 mg/kg oral): 42.00 g/L
TBIL (Total Bilirubin) ([1]; 250 mg/kg oral): 2.50 µmol/L
Total Protein ([1]; 250 mg/kg oral): 59.00 g/L
ALP (Alkaline Phophatase) ([1]; 500 mg/kg oral): 219.50 IU/L
ALT (Alanine Aminotransferase) ([1]; 500 mg/kg oral): 70.00 IU/L
AST (Aspartate Transaminase) ([1]; 500 mg/kg oral): 316.50 ± 78.49 IU/L
Albumin ([1]; 500 mg/kg oral): 16.00 g/L
BC (Conjugated Bilirubin) ([1]; 500 mg/kg oral): < 1 µmol/L
GGT (G-Glutamyl Transferase) ([1]; 500 mg/kg oral): < 3 IU/L
Globulin ([1]; 500 mg/kg oral): 37.50 g/L
TBIL (Total Bilirubin) ([1]; 500 mg/kg oral): 3.00 µmol/L
Total Protein ([1]; 500 mg/kg oral): 53.50 g/L
TNF-induced expression of COX-2 (COX-2 expression): inhibited TNF-induced expression of COX-2 in a dose dependent manner
Anion Gap ([2]; 125 mg/kg oral): 24.80 mmol/L
CO2 ([2]; 125 mg/kg oral): 18.18 mmol/L
Chlorine ([2]; 125 mg/kg oral): 110.80 mmol/L
Creatinine ([2]; 125 mg/kg oral): < 9 µmol/L
Potassium ([2]; 125 mg/kg oral): 6.68 ± 1.12 mmol/L
Sodium ([2]; 125 mg/kg oral): 147.00 mmol/L
Urea ([2]; 125 mg/kg oral): 10.72 mmol/L
Anion Gap ([2]; 250 mg/kg oral): 26.67 mmol/L
CO2 ([2]; 250 mg/kg oral): 16.36 mmol/L
Chlorine ([2]; 250 mg/kg oral): 111.00 mmol/L
Creatinine ([2]; 250 mg/kg oral): < 9 µmol/L
Potassium ([2]; 250 mg/kg oral): 6.50 ± 0.52 mmol/L
Sodium ([2]; 250 mg/kg oral): 147.50 mmol/L
Urea ([2]; 250 mg/kg oral): 9.96 mmol/L
Anion Gap ([2]; 500 mg/kg oral): 27.00 mmol/L
CO2 ([2]; 500 mg/kg oral): 16.14 mmol/L
Chlorine ([2]; 500 mg/kg oral): 110.83 mmol/L
Creatinine ([2]; 500 mg/kg oral): < 9 µmol/L
Potassium ([2]; 500 mg/kg oral): 5.83 ± 0.74 mmol/L
Sodium ([2]; 500 mg/kg oral): 148.33 mmol/L
Urea ([2]; 500 mg/kg oral): 9.56 mmol/L
IκBα degradation and p65 translocation (immunoblot) [3]: dramatically reduced
TNF-mediated phosphorylation of IκBα (immunoblot) [3]: completely abolished
